# pIC50: −log10 of the molar value.
# What was measured:
# Human tryptase = experiment: Enzyme selectivity evaluation test: tryptase; type: biochemical
# Procedure: S-2288 (H-D-Ile-Pro-Arg-pNA.2HCl) was added as the substrate at a final concentration of 300 μmol/L. After progression of the reaction, the absorbance was measured at OD 405 nm.
# [1] = Dog PK test (Test Example 7); type: in vivo; conditions: plasma, 1 mg/kg, male beagle, intravenous, 1 mg/2 mL/kg, read-out: AUC from 0 hours to 24 hours (compound of Reference Example 2-6 in plasma)
# Procedure: (§1) The compound of Reference Example 2-6 was dissolved in a mixed solution of saline/0.1 N HCl=9/1, and this solution was intravenously administered at a dose of 1 mg/2 mL/kg to a male beagle. Blood collection was carried out 0.25, 0.5, 1, 2, 4, 6, and 24 hours after administration. 2 mL of blood was collected using a syringe packed with 20 μL of Novo-Heparin Injection, transferred to a centrifugal tube cooled in ice, and centrifuged at 3000 rpm at 4° C. for 10 minutes to prepare plasma. 200 μL of the prepared plasma was added to a tube containing 600 μL of acetonitrile and mixed for approximately 10 seconds using a vortex mixer. Then, the concentration of the compound of Reference Example 2-6 was measured.
# (§2) The compound of Example 1 was dissolved in a 0.5% aqueous methylcellulose solution, and this solution was orally administered at a dose of 5 mg/5 mL/kg to a male beagle fasted for 16 hours. Blood collection was carried out 0.5, 1, 2, 4, 6, and 24 hours after administration. 2 mL of blood was collected using a syringe packed with 20 μL of Novo-Heparin Injection, transferred to a centrifugal tube cooled in ice, and centrifuged at 3000 rpm at 4° C. for 10 minutes to prepare plasma. […] Then, the concentration of the compound of Reference Example 2-6 was measured.
# [2] = Dog PK test (Test Example 9); type: in vivo; conditions: plasma, 1 mg/kg, male beagle, intravenous, 1 mg/2 mL/kg, read-out: AUC from 0 hours to 24 hours (compound of Reference Example 2-6 in plasma)
# Procedure: as §1
# as §2, with “Example 7” for “Example 1”, “was suspended” for “was dissolved”, “this suspension” for “this solution”
# Human FXIa = Human FXIa (Homo sapiens, UniProt P03951); experiment: In vitro activated factor XI (FXIa) inhibition test; type: biochemical; set-up: purchased Enzyme Research Laboratories; conditions: substrate S-2366, 37° C., 10 minutes; read-out: FXIa Inhibition activity IC50
# Sequence of Human FXIa (P03951 388-625 limits assumed): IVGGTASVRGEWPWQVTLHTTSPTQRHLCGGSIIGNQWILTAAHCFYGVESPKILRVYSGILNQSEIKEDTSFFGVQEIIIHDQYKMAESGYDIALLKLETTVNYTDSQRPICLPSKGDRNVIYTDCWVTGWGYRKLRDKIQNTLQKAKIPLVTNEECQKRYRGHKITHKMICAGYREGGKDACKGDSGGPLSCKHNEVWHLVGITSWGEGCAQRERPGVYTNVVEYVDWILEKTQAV
# Sequence of Human FXIa (P03951 19-387 partner limits assumed): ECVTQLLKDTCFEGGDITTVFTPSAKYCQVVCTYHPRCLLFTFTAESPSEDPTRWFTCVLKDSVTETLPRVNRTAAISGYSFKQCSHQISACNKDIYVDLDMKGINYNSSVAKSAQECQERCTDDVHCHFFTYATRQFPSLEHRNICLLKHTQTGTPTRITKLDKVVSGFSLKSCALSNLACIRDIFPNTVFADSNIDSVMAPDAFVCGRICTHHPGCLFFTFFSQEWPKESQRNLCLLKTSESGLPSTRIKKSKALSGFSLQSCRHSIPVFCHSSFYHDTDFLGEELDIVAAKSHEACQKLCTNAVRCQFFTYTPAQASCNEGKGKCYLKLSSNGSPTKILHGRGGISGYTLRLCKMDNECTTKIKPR
smiles,measurement,setting,value
"Cl.N[C@H](CF)[C@H]1CC[C@H](C(=O)N2CC[C@@H](C3CCCCC3)[C@H]2C(=O)Nc2ccc3[nH]c(C(=O)O)cc3c2)CC1 [Reference Example 2-6, 5-{[(3S)-1-({trans-4-[(1S)-1-Amino-2-fluoroethyl]cyclohexyl}carbonyl)-3-cyclohexyl-L-prolyl]amino}-1H-indole-2-carboxylic acid hydrochloride]",pIC50,Human tryptase,< 5.00
same,AUC,[1],5220 ng·h/mL
same,AUC,[2],4420 ng·h/mL
same,pIC50,Human FXIa,8.22

# From patent publication US9718840B2, “Condensed 5-oxazolidinone derivative” (SUMITOMO DAINIPPON PHARMA CO., LTD., priority 2014, dated 2017)
